# Measurements: US20230123334A1, “AMINO LIPID COMPOUND, PREPARATION METHOD THEREFOR, AND APPLICATION THEREOF” (SHENZHEN SHENXIN BIOTECHNOLOGY CO., LTD., priority 2020, published 2023)
# Tested on: HEK293 cells
# Test: Preliminary screening as mRNA vectors, EGFP mRNA transfection of HEK293 cells
# Type: cell-based
# Settings: EGFP mRNA 50 ng per well, 96-well plates; percentage of GFP fluorescent cells relative to total number of cells (Hoechst)
# Procedure, shortened: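 HEK293 cells in DMEM plus 10% FBS transfected in 96-well format with 50 ng EGFP mRNA per well; Lipofectamine2000 served as positive control. Read-out is the percentage of GFP-fluorescent cells among total cells, counted by Hoechst nuclear stain.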
row,SMILES,Absolute mRNA transfection efficiency in HEK293 cells [%]
1,CCCCCCCCCCCCCCCCNc1nc(NCCCN2CCOCC2)nc(SCCCCCCCCC)n1 [Compound D8S9N16],2.1
2,CCCCCCCCCCCCCCCCCCNc1nc(NCCCN2CCOCC2)nc(SCCCCCCCCC)n1 [Compound D8S9N18],1.9
3,CCCCCCCCCCSc1nc(NCCCCCC)nc(NCCCN2CCOCC2)n1 [Compound D8S10N6],0.2
4,CCCCCCCCCCSc1nc(NCCCCCCC)nc(NCCCN2CCOCC2)n1 [Compound D8S10N7],0.6
5,CCCCCCCCCCSc1nc(NCCCCCCCC)nc(NCCCN2CCOCC2)n1 [Compound D8S10N8],0.4
6,CCCCCCCCCCSc1nc(NCCCCCCCCC)nc(NCCCN2CCOCC2)n1 [Compound D8S10N9],0.1
7,CCCCCCCCCCCNc1nc(NCCCN2CCOCC2)nc(SCCCCCCCCCC)n1 [Compound D8S10N11],0.1
8,CCCCCCCCCCCCNc1nc(NCCCN2CCOCC2)nc(SCCCCCCCCCC)n1 [Compound D8S10N12],0.1
9,CCCCCCCCCCCCCNc1nc(NCCCN2CCOCC2)nc(SCCCCCCCCCC)n1 [Compound D8S10N13],0.2
10,CCCCCCCCCCCCCCCNc1nc(NCCCN2CCOCC2)nc(SCCCCCCCCCC)n1 [Compound D8S10N15],0.2
11,CCCCCCCCCCCCCCCCNc1nc(NCCCN2CCOCC2)nc(SCCCCCCCCCC)n1 [Compound D8S10N16],0.2
12,CCCCCCCCCCCCCCCCCCNc1nc(NCCCN2CCOCC2)nc(SCCCCCCCCCC)n1 [Compound D8S10N18],0.1
13,CCCCCCCCCCCSc1nc(NCCCCCC)nc(NCCCN2CCOCC2)n1 [Compound D8S11N6],2.8
14,CCCCCCCCCCCSc1nc(NCCCCCCC)nc(NCCCN2CCOCC2)n1 [Compound D8S11N7],3.1
15,CCCCCCCCCCCSc1nc(NCCCCCCCC)nc(NCCCN2CCOCC2)n1 [Compound D8S11N8],0.3
16,CCCCCCCCCCCSc1nc(NCCCCCCCCC)nc(NCCCN2CCOCC2)n1 [Compound D8S11N9],1.6
17,CCCCCCCCCCCNc1nc(NCCCN2CCOCC2)nc(SCCCCCCCCCCC)n1 [Compound D8S11N11],3.6
18,CCCCCCCCCCCCNc1nc(NCCCN2CCOCC2)nc(SCCCCCCCCCCC)n1 [Compound D8S11N12],1.0
19,CCCCCCCCCCCCCNc1nc(NCCCN2CCOCC2)nc(SCCCCCCCCCCC)n1 [Compound D8S11N13],3.1
20,CCCCCCCCCCCCCCCNc1nc(NCCCN2CCOCC2)nc(SCCCCCCCCCCC)n1 [Compound D8S11N15],0.5

row,SMILES,Absolute mRNA transfection efficiency in HEK293 cells [%]
1,CCCCCCCCCCCCCCCCNc1nc(NCCCN2CCOCC2)nc(SCCCCCCCCCCC)n1 [Compound D8S11N16],0.7
2,CCCCCCCCCCCCCCCCCCNc1nc(NCCCN2CCOCC2)nc(SCCCCCCCCCCC)n1 [Compound D8S11N18],0.6
3,CCCCCCCCCCCCSc1nc(NCCCCCC)nc(NCCCN2CCOCC2)n1 [Compound D8S12N6],0.9
4,CCCCCCCCCCCCSc1nc(NCCCCCCC)nc(NCCCN2CCOCC2)n1 [Compound D8S12N7],1.5
5,CCCCCCCCCCCCSc1nc(NCCCCCCCC)nc(NCCCN2CCOCC2)n1 [Compound D8S12N8],2.3
6,CCCCCCCCCCCCSc1nc(NCCCCCCCCC)nc(NCCCN2CCOCC2)n1 [Compound D8S12N9],2.3
7,CCCCCCCCCCCCSc1nc(NCCCCCCCCCCC)nc(NCCCN2CCOCC2)n1 [Compound D8S12N11],0.4
8,CCCCCCCCCCCCNc1nc(NCCCN2CCOCC2)nc(SCCCCCCCCCCCC)n1 [Compound D8S12N12],0.0
9,CCCCCCCCCCCCCNc1nc(NCCCN2CCOCC2)nc(SCCCCCCCCCCCC)n1 [Compound D8S12N13],0.3
10,CCCCCCCCCCCCCCCNc1nc(NCCCN2CCOCC2)nc(SCCCCCCCCCCCC)n1 [Compound D8S12N15],0.0
11,CCCCCCCCCCCCCCCCNc1nc(NCCCN2CCOCC2)nc(SCCCCCCCCCCCC)n1 [Compound D8S12N16],0.7
12,CCCCCCCCCCCCCCCCCCNc1nc(NCCCN2CCOCC2)nc(SCCCCCCCCCCCC)n1 [Compound D8S12N18],1.1
13,CCCCCCCCCCCCCCSc1nc(NCCCCCC)nc(NCCCN2CCOCC2)n1 [Compound D8S14N6],9.2
14,CCCCCCCCCCCCCCSc1nc(NCCCCCCC)nc(NCCCN2CCOCC2)n1 [Compound D8S14N7],3.1
15,CCCCCCCCCCCCCCSc1nc(NCCCCCCCC)nc(NCCCN2CCOCC2)n1 [Compound D8S14N8],1.6
16,CCCCCCCCCCCCCCSc1nc(NCCCCCCCCC)nc(NCCCN2CCOCC2)n1 [Compound D8S14N9],2.3
17,CCCCCCCCCCCCCCSc1nc(NCCCCCCCCCCC)nc(NCCCN2CCOCC2)n1 [Compound D8S14N11],2.0
18,CCCCCCCCCCCCCCSc1nc(NCCCCCCCCCCCC)nc(NCCCN2CCOCC2)n1 [Compound D8S14N12],1.3
19,CCCCCCCCCCCCCCSc1nc(NCCCCCCCCCCCCC)nc(NCCCN2CCOCC2)n1 [Compound D8S14N13],1.4
20,CCCCCCCCCCCCCCCNc1nc(NCCCN2CCOCC2)nc(SCCCCCCCCCCCCCC)n1 [Compound D8S14N15],0.0

row,SMILES,Absolute mRNA transfection efficiency in HEK293 cells [%]
1,CCCCCCCCCCCCCCCCNc1nc(NCCCN2CCOCC2)nc(SCCCCCCCCCCCCCC)n1 [Compound D8S14N16],0.4
2,CCCCCCCCCCCCCCCCCCNc1nc(NCCCN2CCOCC2)nc(SCCCCCCCCCCCCCC)n1 [Compound D8S14N18],0.3
3,CCCCCCCCCCCCCCCSc1nc(NCCCCCC)nc(NCCCN2CCOCC2)n1 [Compound D8S15N6],3.5
4,CCCCCCCCCCCCCCCSc1nc(NCCCCCCC)nc(NCCCN2CCOCC2)n1 [Compound D8S15N7],2.2
5,CCCCCCCCCCCCCCCSc1nc(NCCCCCCCC)nc(NCCCN2CCOCC2)n1 [Compound D8S15N8],2.9
6,CCCCCCCCCCCCCCCSc1nc(NCCCCCCCCC)nc(NCCCN2CCOCC2)n1 [Compound D8S15N9],1.1
7,CCCCCCCCCCCCCCCSc1nc(NCCCCCCCCCCC)nc(NCCCN2CCOCC2)n1 [Compound D8S15N11],1.1
8,CCCCCCCCCCCCCCCSc1nc(NCCCCCCCCCCCC)nc(NCCCN2CCOCC2)n1 [Compound D8S15N12],0.3
9,CCCCCCCCCCCCCCCSc1nc(NCCCCCCCCCCCCC)nc(NCCCN2CCOCC2)n1 [Compound D8S15N13],0.2
10,CCCCCCCCCCCCCCCNc1nc(NCCCN2CCOCC2)nc(SCCCCCCCCCCCCCCC)n1 [Compound D8S15N15],0.1
11,CCCCCCCCCCCCCCCCNc1nc(NCCCN2CCOCC2)nc(SCCCCCCCCCCCCCCC)n1 [Compound D8S15N16],0.4
12,CCCCCCCCCCCCCCCCCCNc1nc(NCCCN2CCOCC2)nc(SCCCCCCCCCCCCCCC)n1 [Compound D8S15N18],0.4
13,CCCCCCCCCCCCCCCCSc1nc(NCCCCCC)nc(NCCCN2CCOCC2)n1 [Compound D8S16N6],18.2
14,CCCCCCCCCCCCCCCCSc1nc(NCCCCCCC)nc(NCCCN2CCOCC2)n1 [Compound D8S16N7],17.7
15,CCCCCCCCCCCCCCCCSc1nc(NCCCCCCCC)nc(NCCCN2CCOCC2)n1 [Compound D8S16N8],17.8
16,CCCCCCCCCCCCCCCCSc1nc(NCCCCCCCCC)nc(NCCCN2CCOCC2)n1 [Compound D8S16N9],2.1
17,CCCCCCCCCCCCCCCCSc1nc(NCCCCCCCCCCC)nc(NCCCN2CCOCC2)n1 [Compound D8S16N11],3.6
18,CCCCCCCCCCCCCCCCSc1nc(NCCCCCCCCCCCC)nc(NCCCN2CCOCC2)n1 [Compound D8S16N12],0.9
19,CCCCCCCCCCCCCCCCSc1nc(NCCCCCCCCCCCCC)nc(NCCCN2CCOCC2)n1 [Compound D8S16N13],0.1
20,CCCCCCCCCCCCCCCCSc1nc(NCCCCCCCCCCCCCCC)nc(NCCCN2CCOCC2)n1 [Compound D8S16N15],0.0
